Reference: article PMC6444592, “Citrullination of HP1γ chromodomain affects association with chromatin” (Epigenetics & Chromatin, 2019)

Test system: mESCs
Assay: live-cell single-particle tracking, 13.5 ms, jump distance analysis
Assay type: cell-based, mouse
Conditions: for diffusion rate, effect of LIF withdrawal: −LIF 72 h versus +LIF
Method: Parental E14 mouse embryonic stem cell (mESC) line was profiled by transcriptome analysis, qPCR and potency assays and was routinely tested for mycoplasma contamination and tested negative. Cells were cultured in DMEM (Gibco) supplemented with 15% standard FCS (Gibco), 0.1 mM non-essential amino acids (Gibco), 1% penicillin/streptomycin, 2 mM L-glutamine (Gibco), 1 mM sodium pyruvate (Gibco), 0.1 mM β-mercaptoethanol (Life Technologies) and 10^6 units/l mLIF (ESGRO, Millipore). E14 cells were stored in incubators at 37 °C in 7.5% CO2 (100% humidity) and maintained in 0.1% gelatin coated 10-cm culture dishes with 1:6 passaging every 2 days. Media was changed on a daily basis. E14 ESCs expressing mouse mEos3.2–HaloTag-HP1 fusion proteins were generated by transfecting appropriate pSB7 plasmids into E14 cells using Lipofectamine 2000 transfection reagent (Invitrogen), followed by selection in 600 µg/ml geneticin (Life Technologies). After 2 weeks of geneticin selection, cells were sorted using a Sony SH800S cell sorter for the expression of mEos3.2. Differentiation of ESCs was induced by LIF withdrawal. ESCs cultured in complete ES cell media (+ LIF) were trypsinised and washed twice in 1x PBS to remove residual LIF, seeded into ES cell media without LIF and incubated for 24, 48 or 72 h.
An IX73 Olympus inverted microscope was used with circularly polarised laser beams aligned and focused at the back aperture of an Olympus 1.40 NA 100 × oil objective (Universal Plan Super Apochromat, 100 × , NA 1.40, UPLSAPO100XO/1.4). Continuous wavelength diode laser light sources used include a 561-nm (Cobolt, Jive 200, 200 mW) and a 405-nm laser (Stradus, Toptica, 405–100, 100 mW). Oblique angle illumination was achieved by aligning the laser off axis such that the emergent beam at the sample interface was near-collimated and incident at an angle slightly less than the critical angle θc ~ 67° for a glass/water interface. This generated a ~ 50 μm diameter excitation footprint. The power of the collimated beams at the back aperture of the microscope was 10 kW/cm^2 and 10–100 W/cm^2 for the 561-nm and 405-nm laser beams, respectively. The lasers were reflected by dichroic mirrors (Semrock, Di01-R405/488/561/635). The fluorescence emission was collected through the same objective and then further filtered using a combination of long-pass and band-pass filters (BLP01-561R and FF01-587/35 for 561 nm excitation). The emission signal was projected onto an EMCCD (Photometrics, Evolve 512 Delta) with an electron multiplication gain of 250 ADU/photon operating in a frame transfer mode.
mESCs expressing mEos3.2–HaloTag-tagged HP1γ were passaged 2 days before imaging onto 35-mm glass bottom dishes No 1.0 (MatTek Corporation P35G-1.0-14-C Case) in phenol red-free serum and LIF conditions, if not stated otherwise. Just before single-particle tracking (SPT) imaging experiments, cells were labelled with 0.5 nM HaloTag–JF549 ligand for at least 15 min, followed by two washes in PBS and a 30-min incubation at 37 °C in media, before imaging the cells in fresh phenol red-free serum and LIF conditions. Cells were under-labelled to prevent overlap of fluorophores during SPT. Using 561 nm excitation, fluorescence images were collected as movies of 10,000 frames at 13.5 ms or 1000 to 5000 frames at 500 ms exposure. For live-cell tracking, data were collected for three biological replicates on separate dishes and the average values compared.
Live-cell 13.5-ms single-molecule traces were analysed using software that detects single-molecule trajectories from SPT movies. Briefly, the code detected puncta positions in each image frame using a brightness-weighted centroid after applying a band-pass filter to remove low-frequency background and high-frequency noise from the image data. To track the HP1 single molecules, only fluorescent puncta smaller than 3 pixels and with a signal to noise greater than 8 were analysed. […]

## HP1γWT: full-length mouse HP1γ wild type, as GST or mEos3.2–HaloTag fusion protein
+LIF, 13.5 ms, replicate i
  Diffusion coefficient, Bound: 0.100 µm2s-1
  Diffusion coefficient, Diffusing: 0.780 µm2s-1
  Percentage, Bound: 36.7%
  Percentage, Diffusing: 63.3%
+LIF, 13.5 ms, replicate ii
  Diffusion coefficient, Bound: 0.100 µm2s-1
  Diffusion coefficient, Diffusing: 0.812 µm2s-1
  Percentage, Bound: 30%
  Percentage, Diffusing: 70%
+LIF, 13.5 ms, replicate iii
  Diffusion coefficient, Bound: 0.100 µm2s-1
  Diffusion coefficient, Diffusing: 0.784 µm2s-1
  Percentage, Bound: 32.4%
  Percentage, Diffusing: 67.6%
+LIF, 13.5 ms, replicate iv
  Diffusion coefficient, Bound: 0.097 µm2s-1
  Diffusion coefficient, Diffusing: 1.019 µm2s-1
  Percentage, Bound: 49%
  Percentage, Diffusing: 51%
+LIF, 13.5 ms, replicate v
  Diffusion coefficient, Bound: 0.089 µm2s-1
  Diffusion coefficient, Diffusing: 0.972 µm2s-1
  Percentage, Bound: 38.8%
  Percentage, Diffusing: 61.2%
+LIF, mESCs, 13.5 ms, mean ± SD (n = 5–9)
  Percentage of molecules, diffusing: 63%
13.5 ms
  diffusion rate, effect of LIF withdrawal: no significant effect
−LIF, 13.5 ms, replicate i
  Diffusion coefficient, Bound: 0.082 µm2s-1
  Diffusion coefficient, Diffusing: 0.733 µm2s-1
  Percentage, Bound: 51.4%
  Percentage, Diffusing: 48.6%
−LIF, 13.5 ms, replicate ii
  Diffusion coefficient, Bound: 0.092 µm2s-1
  Diffusion coefficient, Diffusing: 0.912 µm2s-1
  Percentage, Bound: 51%
  Percentage, Diffusing: 49%
−LIF, 13.5 ms, replicate iii
  Diffusion coefficient, Bound: 0.100 µm2s-1
  Diffusion coefficient, Diffusing: 1.037 µm2s-1
  Percentage, Bound: 31.3%
  Percentage, Diffusing: 68.7%
−LIF, 13.5 ms, replicate iv
  Diffusion coefficient, Bound: 0.100 µm2s-1
  Diffusion coefficient, Diffusing: 1.007 µm2s-1
  Percentage, Bound: 30.9%
  Percentage, Diffusing: 69.1%
−LIF, 13.5 ms, replicate v
  Diffusion coefficient, Bound: 0.100 µm2s-1
  Diffusion coefficient, Diffusing: 0.930 µm2s-1
  Percentage, Bound: 27.9%
  Percentage, Diffusing: 72.1%

## HP1γR38/9A: HP1γ with alanine substitutions at amino acids 38 and 39 to mimic citrullination
+LIF, 13.5 ms, replicate i
  Diffusion coefficient, Bound: 0.090 µm2s-1
  Diffusion coefficient, Diffusing: 0.746 µm2s-1
  Percentage, Bound: 38.9%
  Percentage, Diffusing: 61.1%
+LIF, 13.5 ms, replicate ii
  Diffusion coefficient, Bound: 0.100 µm2s-1
  Diffusion coefficient, Diffusing: 0.761 µm2s-1
  Percentage, Bound: 29.6%
  Percentage, Diffusing: 70.4%
+LIF, 13.5 ms, replicate iii
  Diffusion coefficient, Bound: 0.100 µm2s-1
  Diffusion coefficient, Diffusing: 0.706 µm2s-1
  Percentage, Bound: 34.1%
  Percentage, Diffusing: 65.9%
+LIF, 13.5 ms, replicate iv
  Diffusion coefficient, Bound: 0.100 µm2s-1
  Diffusion coefficient, Diffusing: 1.012 µm2s-1
  Percentage, Bound: 21.5%
  Percentage, Diffusing: 78.5%
+LIF, 13.5 ms, replicate v
  Diffusion coefficient, Bound: 0.100 µm2s-1
  Diffusion coefficient, Diffusing: 1.094 µm2s-1
  Percentage, Bound: 13.1%
  Percentage, Diffusing: 86.9%
+LIF, 13.5 ms, replicate vi
  Diffusion coefficient, Bound: 0.100 µm2s-1
  Diffusion coefficient, Diffusing: 1.108 µm2s-1
  Percentage, Bound: 37.1%
  Percentage, Diffusing: 62.9%
WT and R38/9A, +/− LIF, p values > 0.967
  percentages of molecules in diffusing and bound fractions, significance across conditions: ns.
WT and R38/9A, +/− LIF, p values > 0.999
  diffusion coefficients, significance across conditions: no significant differences across conditions
13.5 ms
  diffusion rate, effect of LIF withdrawal: no significant effect
−LIF, 13.5 ms, replicate i
  Diffusion coefficient, Bound: 0.075 µm2s-1
  Diffusion coefficient, Diffusing: 0.609 µm2s-1
  Percentage, Bound: 44.5%
  Percentage, Diffusing: 55.5%
−LIF, 13.5 ms, replicate ii
  Diffusion coefficient, Bound: 0.100 µm2s-1
  Diffusion coefficient, Diffusing: 0.697 µm2s-1
  Percentage, Bound: 37.2%
  Percentage, Diffusing: 62.8%
−LIF, 13.5 ms, replicate iii
  Diffusion coefficient, Bound: 0.100 µm2s-1
  Diffusion coefficient, Diffusing: 0.913 µm2s-1
  Percentage, Bound: 32.9%
  Percentage, Diffusing: 67.1%
−LIF, 13.5 ms, replicate iv
  Diffusion coefficient, Bound: 0.100 µm2s-1
  Diffusion coefficient, Diffusing: 0.659 µm2s-1
  Percentage, Bound: 34.6%
  Percentage, Diffusing: 65.4%
−LIF, 13.5 ms, replicate ix
  Diffusion coefficient, Bound: 0.100 µm2s-1
  Diffusion coefficient, Diffusing: 1.031 µm2s-1
  Percentage, Bound: 28.9%
  Percentage, Diffusing: 71.1%
−LIF, 13.5 ms, replicate v
  Diffusion coefficient, Bound: 0.100 µm2s-1
  Diffusion coefficient, Diffusing: 0.710 µm2s-1
  Percentage, Bound: 39.6%
  Percentage, Diffusing: 60.4%
−LIF, 13.5 ms, replicate vi
  Diffusion coefficient, Bound: 0.100 µm2s-1
  Diffusion coefficient, Diffusing: 0.582 µm2s-1
  Percentage, Bound: 38.6%
  Percentage, Diffusing: 61.4%
−LIF, 13.5 ms, replicate vii
  Diffusion coefficient, Bound: 0.100 µm2s-1
  Diffusion coefficient, Diffusing: 0.774 µm2s-1
  Percentage, Bound: 36.9%
  Percentage, Diffusing: 63.1%
−LIF, 13.5 ms, replicate viii
  Diffusion coefficient, Bound: 0.100 µm2s-1
  Diffusion coefficient, Diffusing: 0.812 µm2s-1
  Percentage, Bound: 33.6%
  Percentage, Diffusing: 66.4%
